From ChEMBL document CHEMBL1141758, “Gesashidine A, a beta-carboline alkaloid with an imidazole ring from a Thorectidae sponge” (J Nat Prod, 2005)
Calls of active or inactive are those of the source. The rule behind the calls is not given here.

Key:
Micrococcus luteus = assay: Antimicrobial activity against Micrococcus luteus; type: functional
KB = assay: Cytotoxicity against human KB cells; type: functional, cell-based
L1210 = assay: Cytotoxicity against mouse L1210 cells; type: functional, cell-based

SMILES | Activity (Micrococcus luteus) | IC50 (KB) | MIC (Micrococcus luteus) | IC50 (L1210)
CSc1c(Cc2nc(C(=O)[O-])cc3c2[nH]c2ccc(O)cc23)n(C)c[n+]1C | inactive |  |  | 
CSc1c(Cc2nccc3c2[nH]c2ccc(O)cc23)n(C)c[n+]1C [GESASHIDINE A] |  | > 10 mg/L | 16.6 mg/L | > 10 mg/L
CSc1c(C(=O)c2nc(C(=O)[O-])cc3c2[nH]c2ccc(O)cc23)n(C)c[n+]1C | inactive |  |  | 
